This passage reports MIC results from patent US10919916B2, “Boron-containing small molecules” (Bill & Melinda Gates Foundation, priority 2016, dated 2021).

≈ marks a conversion by molar mass, not a printed value. Like-named read-outs stand apart in the source and are kept apart here. A value given as a limit tells only on which side of the number the result lay.

Experiment [1] relates to Staphylococcus aureus, MRSA (ATCC 33591). The experiment is described as follows: Antibacterial MIC assay (microbroth dilution, CLSI). In kind it is cell-based. The settings on record: read-out: MIC Staphylococcus aureus, MRSA (ATCC 33591). From the text:
(§1) All MIC testing of bacteria followed the Clinical and Laboratory Standards Institute (CLSI) guidelines for antimicrobial testing of aerobic bacteria (Methods for Dilution Antimicrobial Susceptibility Tests for Bacteria that Grow Aerobically; Approved Standard—Tenth Edition, M07-A10; Performance Standards for Antimicrobial Susceptibility Testing; Twenty-fifth Informational Supplement, M100-S25).
(§2) Briefly, the microbroth dilution MIC method was used to quantitatively measure the in vitro antibacterial activity of a compound against a given bacterial isolate. The following bacterial strains were evaluated: Staphylococcus aureus, MRSA (ATCC 33591) and Streptococcus pneumoniae (ATCC 49619). Bacteria were grown in cation-adjusted Mueller-Hinton broth, with additions as required per species growth requirements (e.g. 3% lysed horse blood for fastidious organisms such as S. pneumoniae). A direct colony suspension in saline was prepared from colonies on an overnight agar plate to achieve a turbidity equivalent to 0.5 McFarland standard, which was subsequently diluted into the assay plate to achieve 5×10^5 CFU/mL. Assays plates were prepared by 2-fold dilution of compound across the plate and included a positive growth control.

Experiment [2] deals with Streptococcus pneumoniae (ATCC 49619). The description is as above. The experiment is classed as cell-based.
Text: as §1
as §2, with “The following bacterial strains were evaluated: Staphylococcus aureus, MRSA (ATCC 33591) and Streptococcus pneumoniae (ATCC 49619).” left out

The mark [3] stands for this setting: ATCC49619, read-out: MIC Streptococcus pneumoniae (ATCC 49619).
[4] abbreviates: microbroth dilution, cation-adjusted Mueller-Hinton broth, 35° C. for 16-20 hours.
[5] abbreviates: ATCC49619, microbroth dilution, 3% lysed horse blood, 35° C. for 16-20 hours, read-out: MIC Streptococcus pneumoniae (ATCC 49619).

In the case of `C=C[C@]1(C)C[C@@H](OC(=O)COc2ccc3c(c2OC)B(O)OC3)[C@]2(C)[C@H](C)CC[C@]3(CCC(=O)[C@H]32)[C@@H](C)[C@@H]1O` [Compound 14, (3aR,4R,5R,7S,8S,9R,9aS,12R)-8-hydroxy-4,7,9,12-tetramethyl-3-oxo-7-vinyldecahydro-4,9a-propanocyclopenta[8]annulen-5-yl2-((1-hydroxy-7-methoxy-1,3-dihydrobenzo[c][1,2]oxaborol-6-yl)oxy)acetate], the MIC in experiment [1] was under 0.25 µg/mL; in experiment [2] (setting [3]) it was 0.5 to 2 µg/mL (≈ 0.925 to 3.7 µM).

As for `C=C[C@]1(C)C[C@@H](OC(=O)COc2ccc3c(c2F)B(O)N(C(=O)OC)N=C3)[C@]2(C)[C@H](C)CC[C@]3(CCC(=O)[C@H]32)[C@@H](C)[C@@H]1O` [Compound 93, Methyl 8-fluoro-1-hydroxy-7-(2-(((3aR,4R,5R,7S,8S,9R,9aS,12R)-8-hydroxy-4,7,9,12-tetramethyl-3-oxo-7-vinyldecahydro-4,9a-propanocyclopenta[8]annulen-5-yl)oxy)-2-oxoethoxy)benzo[d][1,2,3]diazaborinine-2(1H)-carboxylate], the MIC is under 0.25 µg/mL in experiment [1] and 0.5 to 2 µg/mL (≈ 0.835 to 3.34 µM) in experiment [2] (setting [3]).

Take `C=C[C@]1(C)C[C@@H](OC(=O)COc2ccc3c(c2)B(O)N(C(=O)OC(C)(C)C)N=C3)[C@]2(C)[C@H](C)CC[C@]3(CCC(=O)[C@H]32)[C@@H](C)[C@@H]1O` [Compound 71, tert-butyl 1-hydroxy-7-(2-(((3aR,4R,5R,7S,8S,9R,9aS,12R)-8-hydroxy-4,7,9,12-tetramethyl-3-oxo-7-vinyldecahydro-4,9a-propanocyclopenta[8]annulen-5-yl)oxy)-2-oxoethoxy)benzo[d][1,2,3]diazaborinine-2(1H)-carboxylate]: the MIC in experiment [1] and in experiment [2] (setting [3]) was under 0.25 µg/mL in each case. As for `C=C[C@]1(C)C[C@@H](OC(=O)NCc2ccc3c(c2)B(O)OC3)[C@]2(C)[C@H](C)CC[C@]3(CCC(=O)[C@H]32)[C@@H](C)[C@@H]1O` [Compound 56, (3aR,4R,5R,7S,8S,9R,9aS,12R)-8-hydroxy-4,7,9,12-tetramethyl-3-oxo-7-vinyldecahydro-4,9a-propanocyclopenta[8]annulen-5-yl ((1-hydroxy-1,3-dihydrobenzo[c][1,2]oxaborol-6-yl)methyl) carbamate], the values for the MIC in experiment [1] (setting [4]) and in experiment [2] (setting [5]) were under 0.25 µg/mL and 0.5 to 2 µg/mL (≈ 0.981 to 3.93 µM), respectively.

With `C=C[C@]1(C)C[C@@H](OC(=O)C[S@@+]([O-])c2ccc3c(c2)B(O)OC3)[C@]2(C)[C@H](C)CC[C@]3(CCC(=O)[C@H]32)[C@@H](C)[C@@H]1O` [Compound 62, (3aR,4R,5R,7S,8S,9R,9aS,12R)-8-hydroxy-4,7,9,12-tetramethyl-3-oxo-7-vinyldecahydro-4,9a-propanocyclopenta[8]annulen-5-yl2-((R)-(1-hydroxy-1,3-dihydrobenzo[c][1,2]oxaborol-6-yl)sulfinyl)acetate], the MIC in experiment [1] is under 0.25 µg/mL; in experiment [2] (setting [3]), 0.5 to 2 µg/mL (≈ 0.922 to 3.69 µM).

Turning to `C=C[C@]1(C)C[C@@H](OC(=O)CNc2cc3c(cc2F)COB3O)[C@]2(C)[C@H](C)CC[C@]3(CCC(=O)[C@H]32)[C@@H](C)[C@@H]1O` [Compound 46, (3aR,4R,5R,7S,8S,9R,9aS,12R)-8-hydroxy-4,7,9,12-tetramethyl-3-oxo-7-vinyldecahydro-4,9a-propanocyclopenta[8]annulen-5-yl (5-fluoro-1-hydroxy-1,3-dihydrobenzo[c][1,2]oxaborol-6-yl)glycinate], the MIC in experiment [1] is under 0.25 µg/mL; in experiment [2] (setting [3]), 0.5 to 2 µg/mL (≈ 0.948 to 3.79 µM). For `C=C[C@]1(C)C[C@@H](OC(=O)CNCc2ccc3c(c2)B(O)OC3)[C@]2(C)[C@H](C)CC[C@]3(CCC(=O)[C@H]32)[C@@H](C)[C@@H]1O` [Compound 59, (3aR,4R,5R,7S,8S,9R,9aS,12R)-8-hydroxy-4,7,9,12-tetramethyl-3-oxo-7-vinyldecahydro-4,9a-propanocyclopenta[8]annulen-5-yl ((1-hydroxy-1,3-dihydrobenzo[c][1,2]oxaborol-6-yl)methyl)glycinate] the same measures were 0.5 to 2 µg/mL (≈ 0.955 to 3.82 µM) and 4 to 32 µg/mL (≈ 7.64 to 61.1 µM). For `C=C[C@]1(C)C[C@@H](OC(=O)COc2ccc3c(c2)B(O)N(S(C)(=O)=O)N=C3)[C@]2(C)[C@H](C)CC[C@]3(CCC(=O)[C@H]32)[C@@H](C)[C@@H]1O` [Compound 75, (3aR,4R,5R,7S,8S,9R,9aS,12R)-8-hydroxy-4,7,9,12-tetramethyl-3-oxo-7-vinyldecahydro-4,9a-propanocyclopenta[8]annulen-5-yl 2-((1-hydroxy-2-(methylsulfonyl)-1,2-dihydrobenzo[d][1,2,3]diazaborinin-7-yl)oxy)acetate], the MIC in experiment [1] is under 0.25 µg/mL; in experiment [2] (setting [3]), 0.5 to 2 µg/mL (≈ 0.833 to 3.33 µM). Take `C=C[C@]1(C)C[C@@H](OC(=O)CNc2ccc3c(c2F)B(O)OC3)[C@]2(C)[C@H](C)CC[C@]3(CCC(=O)[C@H]32)[C@@H](C)[C@@H]1O` [Compound 54, (3aR,4R,5R,7S,8S,9R,9aS,12R)-8-hydroxy-4,7,9,12-tetramethyl-3-oxo-7-vinyldecahydro-4,9a-propanocyclopenta[8]annulen-5-yl (7-fluoro-1-hydroxy-1,3-dihydrobenzo[c][1,2]oxaborol-6-yl)glycinate]: the MIC was under 0.25 µg/mL in experiment [1] and 0.5 to 2 µg/mL (≈ 0.948 to 3.79 µM) in experiment [2] (setting [3]). Taken in the same sequence, the figures for `C=C[C@]1(C)C[C@@H](OC(=O)COc2ccc3c(c2)B(O)NN=C3)[C@]2(C)[C@H](C)CC[C@]3(CCC(=O)[C@H]32)[C@@H](C)[C@@H]1O` [Compound 72, (3aR,4R,5R,7S,8S,9R,9aS,12R)-8-hydroxy-4,7,9,12-tetramethyl-3-oxo-7-vinyldecahydro-4,9a-propanocyclopenta[8]annulen-5-yl 2-((1-hydroxy-1,2-dihydrobenzo[d][1,2,3]diazaborinin-7-yl)oxy)acetate] were under 0.25 µg/mL and under 0.25 µg/mL. `C=C[C@]1(C)C[C@@H](OC(=O)COc2ccc3c(c2)NB(C)C=C3)[C@]2(C)[C@H](C)CC[C@]3(CCC(=O)[C@H]32)[C@@H](C)[C@@H]1O` [Compound 104, (3aR,4R,5R,7S,8S,9R,9aS,12R)-8-hydroxy-4,7,9,12-tetramethyl-3-oxo-7-vinyldecahydro-4,9a-propanocyclopenta[8]annulen-5-yl 2-((2-methyl-1,2-dihydrobenzo[e][1,2]azaborinin-7-yl)oxy)acetate]: the MIC in experiment [1] (setting [4]) was under 0.25 µg/mL; in experiment [2] (setting [5]) it was 0.5 to 2 µg/mL (≈ 0.962 to 3.85 µM).

Take `C=C[C@]1(C)C[C@@H](OC(=O)COc2ccc3c(c2F)B(O)N(C(C)=O)N=C3)[C@]2(C)[C@H](C)CC[C@]3(CCC(=O)[C@H]32)[C@@H](C)[C@@H]1O` [Compound 89, (3aR,4R,5R,7S,8S,9R,9aS,12R)-8-hydroxy-4,7,9,12-tetramethyl-3-oxo-7-vinyldecahydro-4,9a-propanocyclopenta[8]annulen-5-yl 2-((2-acetyl-8-fluoro-1-hydroxy-1,2-dihydrobenzo[d][1,2,3]diazaborinin-7-yl)oxy)acetate]: the MIC in experiment [1] and in experiment [2] (setting [3]) was under 0.25 µg/mL in each case. `C=C[C@]1(C)C[C@@H](OC(=O)C[S@+]([O-])c2ccc3c(c2)B(O)OC3)[C@]2(C)[C@H](C)CC[C@]3(CCC(=O)[C@H]32)[C@@H](C)[C@@H]1O` [Compound 63, (3aR,4R,5R,7S,8S,9R,9aS,12R)-8-hydroxy-4,7,9,12-tetramethyl-3-oxo-7-vinyldecahydro-4,9a-propanocyclopenta[8]annulen-5-yl 2-((S)-(1-hydroxy-1,3-dihydrobenzo[c][1,2]oxaborol-6-yl)sulfinyl)acetate]: the MIC in experiment [1] lay within 0.5 to 2 µg/mL (≈ 0.922 to 3.69 µM); in experiment [2] (setting [3]), 4 to 32 µg/mL (≈ 7.37 to 59 µM).

`C=C[C@]1(C)C[C@@H](OC(=O)COc2ccc3c(c2C#N)B(O)OC3)[C@]2(C)[C@H](C)CC[C@]3(CCC(=O)[C@H]32)[C@@H](C)[C@@H]1O` [Compound 16, (3aR,4R,5R,7S,8S,9R,9aS,12R)-8-hydroxy-4,7,9,12-tetramethyl-3-oxo-7-vinyldecahydro-4,9a-propanocyclopenta[8]annulen-5-yl 2-((7-cyano-1-hydroxy-1,3-dihydrobenzo[c][1,2]oxaborol-6-yl)oxy)acetate]: in experiment [1] (setting [4]), the MIC was under 0.25 µg/mL. On the same count and under the same terms, for `C=C[C@]1(C)C[C@@H](OC(=O)COc2cc(CN)c3c(c2)B(O)OC3)[C@]2(C)[C@H](C)CC[C@]3(C[C@H](O)C(=O)[C@H]32)[C@@H](C)[C@@H]1O` [Compound 42, (2S,3aR,4R,5R,7S,8S,9R,9aS,12R)-2,8-dihydroxy-4,7,9,12-tetramethyl-3-oxo-7-vinyldecahydro-4,9a-propanocyclopenta[8]annulen-5-yl 2-((4-(aminomethyl)-1-hydroxy-1,3-dihydrobenzo[c][1,2]oxaborol-6-yl)oxy)acetate] the value was 4 to 32 µg/mL (≈ 7.2 to 57.6 µM).
